{
  "source": "paper PMC12655527",
  "about": "“An Investigational Study on the Role of ADME Agents’ Genetic Variation on DD217 Pharmacokinetics and Safety Profile” (Pharmaceuticals, 2025)",
  "key": {"[1]": {"tested_on": "patients undergoing knee replacement surgery", "assay": "Thromboembolic complications (DVT/PE) during 14-day therapy, phase II trial", "format": "in vivo, human", "details": "for With DVT/PE / Without DVT/PE: 40 mg/day, number of patients; for cases of DVT/PE / PE/DVT, n (safety outcomes): 14 days", "text": "The design, eligibility criteria, and outcomes of the phase II clinical trial evaluating the safety and tolerability of DD217 (NCT05189002, ClinicalTrials.gov) have been described previously. Briefly, this was a multicenter, double-blind, randomized, prospective phase II study designed to determine the optimal dosing regimen and to assess the safety and efficacy of DD217 for the prevention of venous thromboembolism (VTE) in patients undergoing knee replacement surgery. Patients were randomized into one of three groups: two groups received oral DD217 at doses of 40 mg or 60 mg once daily, starting on the morning of the first postoperative day, and one group received the active comparator, dalteparin sodium. The treatment duration was 14 days.\nIn total, seven cases of DVT/PE were documented during the trial: four in the DD217 40 mg/day group, one in the DD217 60 mg/day group, and two in the dalteparin sodium group. In addition, two bleeding events were recorded: one clinically relevant non-major bleed in the DD217 60 mg/day group and one clinically non-relevant minor bleed in the dalteparin sodium group."}, "Factor Xa": {"tested_on": "Factor Xa", "design": "method as in PMID 29468977", "details": "preclinical studies; cited from earlier work"}},
  "data": [
    {"smiles": "CC(=N)N(C)c1ccc(C(=O)Nc2ccc(C)cc2C(=O)Nc2ccc(Cl)cn2)cc1.Cl", "note": "[DD217, N-(5-chloropyridin-2-yl)-5-methyl-2-[4-(N-methylacetimidamido)benzamido]benzamide hydrochloride]", "values": [
      {"measurement": "With DVT/PE", "setting": "[1]; ABCB1 rs1045642 C/C (n 5)", "result": 3},
      {"measurement": "Without DVT/PE", "setting": "[1]; ABCB1 rs1045642 C/C (n 5)", "result": 2},
      {"measurement": "With DVT/PE", "setting": "[1]; ABCB1 rs1045642 T/C (n 7)", "result": 1},
      {"measurement": "Without DVT/PE", "setting": "[1]; ABCB1 rs1045642 T/C (n 7)", "result": 6},
      {"measurement": "With DVT/PE", "setting": "[1]; ABCB1 rs1045642 T/T (n 4)", "result": 0},
      {"measurement": "Without DVT/PE", "setting": "[1]; ABCB1 rs1045642 T/T (n 4)", "result": 4},
      {"measurement": "With DVT/PE", "setting": "[1]; ABCB1 rs1128503 C/C (n 8)", "result": 3},
      {"measurement": "Without DVT/PE", "setting": "[1]; ABCB1 rs1128503 C/C (n 8)", "result": 5},
      {"measurement": "With DVT/PE", "setting": "[1]; ABCB1 rs1128503 C/T (n 6)", "result": 1},
      {"measurement": "Without DVT/PE", "setting": "[1]; ABCB1 rs1128503 C/T (n 6)", "result": 5},
      {"measurement": "With DVT/PE", "setting": "[1]; ABCB1 rs1128503 T/T (n 2)", "result": 0},
      {"measurement": "Without DVT/PE", "setting": "[1]; ABCB1 rs1128503 T/T (n 2)", "result": 2},
      {"measurement": "With DVT/PE", "setting": "[1]; ABCB1 rs2032582 G/G (n 8)", "result": 3},
      {"measurement": "Without DVT/PE", "setting": "[1]; ABCB1 rs2032582 G/G (n 8)", "result": 5},
      {"measurement": "With DVT/PE", "setting": "[1]; ABCB1 rs2032582 G/T (n 6)", "result": 1},
      {"measurement": "Without DVT/PE", "setting": "[1]; ABCB1 rs2032582 G/T (n 6)", "result": 5},
      {"measurement": "With DVT/PE", "setting": "[1]; ABCB1 rs2032582 T/T (n 2)", "result": 0},
      {"measurement": "Without DVT/PE", "setting": "[1]; ABCB1 rs2032582 T/T (n 2)", "result": 2},
      {"measurement": "With DVT/PE", "setting": "[1]; ABCB1 rs4148738 C/C (n 2)", "result": 0},
      {"measurement": "Without DVT/PE", "setting": "[1]; ABCB1 rs4148738 C/C (n 2)", "result": 2},
      {"measurement": "With DVT/PE", "setting": "[1]; ABCB1 rs4148738 T/C (n 6)", "result": 1},
      {"measurement": "Without DVT/PE", "setting": "[1]; ABCB1 rs4148738 T/C (n 6)", "result": 5},
      {"measurement": "With DVT/PE", "setting": "[1]; ABCB1 rs4148738 T/T (n 8)", "result": 3},
      {"measurement": "Without DVT/PE", "setting": "[1]; ABCB1 rs4148738 T/T (n 8)", "result": 5},
      {"measurement": "cases of DVT/PE", "setting": "[1]; DD217 40 mg/day group (n = 16)", "result": "four"},
      {"measurement": "PE/DVT, n (safety outcomes)", "setting": "[1]; DD217 40 mg/day oral, of 16 patients", "result": 4, "unit": "n"},
      {"measurement": "cases of DVT/PE", "setting": "[1]; DD217 60 mg/day group (n = 18)", "result": "one"},
      {"measurement": "PE/DVT, n (safety outcomes)", "setting": "[1]; DD217 60 mg/day oral, of 18 patients", "result": 1, "unit": "n"},
      {"measurement": "affinity for the active site of factor Xa", "setting": "Factor Xa", "result": "high affinity"}
    ]}
  ]
}
